# Assay results as given in US20170190671A1, “BIS(ARYL)CATECHOL DERIVATIVES AS HERBICIDES” (E I DU PONT DE NEMOURS AND COMPANY, priority 2014, published 2017).
# Assays:
# Experiment in all cases: Test C preemergence
# Type in all cases: in vivo
# [1] = system: Italian ryegrass (Lolium multiflorum); conditions: Lolium multiflorum, pre-emergence, 336 h, scale 0 to 100, read-out: Plant response rating, Ryegrass, Italian
# Summary of the method: (§1)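 Seeded loam-sand soil (preemergence) or young potted plants of 2-18 cm (postemergence) received test chemical formulated with surfactant in a non-phytotoxic solvent. Pots were kept in the greenhouse for 13-15 days before a visual 0-100 control rating relative to controls.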
# [2] = system: barnyardgrass (Echinochloa crus-galli); conditions: Echinochloa crus-galli, pre-emergence, read-out: Plant response rating, Barnyardgrass
# Summary of the method: as §1
# corn (Zea mays) = conditions: Zea mays, pre-emergence, 336 h, scale 0 to 100
# Summary of the method: as §1
# [3] = system: galium (catchweed bedstraw, Galium aparine); conditions: Galium, pre-emergence, 336 h, scale 0 to 100, read-out: Plant response rating, Galium
# Summary of the method: as §1
# [4] = system: giant foxtail (Setaria faberii); conditions: Setaria faberi, pre-emergence, 336 h, scale 0 to 100, read-out: Plant response rating, Foxtail, Giant
# Summary of the method: as §1
# [5] = system: johnsongrass (Sorghum halepense); conditions: Sorghum halepense, pre-emergence, 336 h, scale 0 to 100, read-out: Plant response rating, Johnsongrass
# Summary of the method: as §1
# [6] = system: lambsquarters (Chenopodium album); conditions: Chenopodium album, pre-emergence, 336 h, scale 0 to 100, read-out: Plant response rating, Lambsquarters
# Summary of the method: as §1
# [7] = system: large (Lg) crabgrass (Digitaria sanguinalis); conditions: Digitaria sanguinalis, pre-emergence, 336 h, scale 0 to 100, read-out: Plant response rating, Crabgrass, Large
# Summary of the method: as §1
# [8] = system: morningglory (Ipomoea coccinea); conditions: Ipomoea, pre-emergence, 336 h, scale 0 to 100, read-out: Plant response rating, Morningglory
# Summary of the method: as §1
# [9] = system: pigweed (Amaranthus retroflexus); conditions: Amaranthus retroflexus, pre-emergence, 336 h, scale 0 to 100, read-out: Plant response rating, Pigweed
# Summary of the method: as §1
# [10] = system: ragweed (common ragweed, Ambrosia elatior); conditions: Ambrosia artemisiifolia, pre-emergence, 336 h, scale 0 to 100, read-out: Plant response rating, Ragweed
# Summary of the method: as §1
# soybean (Glycine max) = conditions: Glycine max, pre-emergence, scale 0 to 100, read-out: Plant response rating, Soybean
# Summary of the method: as §1
# [11] = system: velvetleaf (Abutilon theophrasti); conditions: Abutilon theophrasti, pre-emergence, scale 0 to 100, read-out: Plant response rating, Velvetleaf
# Summary of the method: as §1
# [12] = system: waterhemp (common waterhemp, Amaranthus rudis); conditions: Amaranthus tuberculatus, pre-emergence, scale 0 to 100, read-out: Plant response rating, Waterhemp
# Summary of the method: as §1
# [13] = system: winter wheat (Triticum aestivum); conditions: Triticum aestivum, pre-emergence, 336 h, scale 0 to 100, read-out: Plant response rating, Wheat
# Summary of the method: as §1
compound,measurement,setting,value
"FC(F)c1cccc(Oc2ncc(Cl)cn2)c1Oc1ncc(Cl)cn1 [Compound 46, 2,2′-[[3-(difluoromethyl)-1,2-phenylene]bis(oxy)]bis[5-chloropyrimidine]]",pest or weed control at 31 g/ha,"[1]; 31 g ai/ha, preemergence",25%
same,pest or weed control at 62 g/ha,"[1]; 62 g ai/ha, preemergence",95%
same,pest or weed control at 125 g/ha,"[1]; 125 g ai/ha, preemergence",100%
same,pest or weed control at 16 g/ha,"[1]; Preemergence, 16 g ai/ha",0%
same,pest or weed control at 31 g/ha,"[2]; 31 g ai/ha, preemergence, scale 0 to 100",70%
same,pest or weed control at 62 g/ha,"[2]; 62 g ai/ha, preemergence, scale 0 to 100",100%
same,pest or weed control at 125 g/ha,"[2]; 125 g ai/ha, preemergence, scale 0 to 100",100%
same,pest or weed control at 16 g/ha,"[2]; Preemergence, 16 g ai/ha, scale 0 to 100 (0 no effect, 100 complete control)",15%
same,"Corn plant response rating (crop injury, 0 = no effect, 100 = complete kill) at 31 g/ha","corn (Zea mays); 31 g ai/ha, preemergence",25%
same,"Corn plant response rating (crop injury, 0 = no effect, 100 = complete kill) at 62 g/ha","corn (Zea mays); 62 g ai/ha, preemergence",25%
same,"Corn plant response rating (crop injury, 0 = no effect, 100 = complete kill) at 125 g/ha","corn (Zea mays); 125 g ai/ha, preemergence",90%
same,"Corn plant response rating (crop injury, 0 = no effect, 100 = complete kill) at 16 g/ha","corn (Zea mays); Preemergence, 16 g ai/ha",10%
same,pest or weed control at 31 g/ha,"[3]; 31 g ai/ha, preemergence",85%
same,pest or weed control at 62 g/ha,"[3]; 62 g ai/ha, preemergence",95%
same,pest or weed control at 125 g/ha,"[3]; 125 g ai/ha, preemergence",100%
same,pest or weed control at 16 g/ha,"[3]; Preemergence, 16 g ai/ha",5%
same,pest or weed control at 31 g/ha,"[4]; 31 g ai/ha, preemergence",100%
same,pest or weed control at 62 g/ha,"[4]; 62 g ai/ha, preemergence",100%
same,pest or weed control at 125 g/ha,"[4]; 125 g ai/ha, preemergence",100%
same,pest or weed control at 16 g/ha,"[4]; Preemergence, 16 g ai/ha",75%
same,pest or weed control at 31 g/ha,"[5]; 31 g ai/ha, preemergence",40%
same,pest or weed control at 62 g/ha,"[5]; 62 g ai/ha, preemergence",75%
same,pest or weed control at 125 g/ha,"[5]; 125 g ai/ha, preemergence",100%
same,pest or weed control at 16 g/ha,"[5]; Preemergence, 16 g ai/ha",5%
same,pest or weed control at 31 g/ha,"[6]; 31 g ai/ha, preemergence",100%
same,pest or weed control at 62 g/ha,"[6]; 62 g ai/ha, preemergence",100%
same,pest or weed control at 125 g/ha,"[6]; 125 g ai/ha, preemergence",100%
same,pest or weed control at 16 g/ha,"[6]; Preemergence, 16 g ai/ha",75%
same,pest or weed control at 31 g/ha,"[7]; 31 g ai/ha, preemergence",100%
same,pest or weed control at 62 g/ha,"[7]; 62 g ai/ha, preemergence",100%
same,pest or weed control at 125 g/ha,"[7]; 125 g ai/ha, preemergence",100%
same,pest or weed control at 16 g/ha,"[7]; Preemergence, 16 g ai/ha",100%
same,pest or weed control at 31 g/ha,"[8]; 31 g ai/ha, preemergence",90%
same,pest or weed control at 62 g/ha,"[8]; 62 g ai/ha, preemergence",80%
same,pest or weed control at 125 g/ha,"[8]; 125 g ai/ha, preemergence",100%
same,pest or weed control at 16 g/ha,"[8]; Preemergence, 16 g ai/ha",20%
same,pest or weed control at 31 g/ha,"[9]; 31 g ai/ha, preemergence",100%
same,pest or weed control at 62 g/ha,"[9]; 62 g ai/ha, preemergence",100%
same,pest or weed control at 125 g/ha,"[9]; 125 g ai/ha, preemergence",100%
same,pest or weed control at 16 g/ha,"[9]; Preemergence, 16 g ai/ha",20%
same,pest or weed control at 31 g/ha,"[10]; 31 g ai/ha, preemergence",25%
same,pest or weed control at 62 g/ha,"[10]; 62 g ai/ha, preemergence",35%
same,pest or weed control at 125 g/ha,"[10]; 125 g ai/ha, preemergence",100%
same,pest or weed control at 16 g/ha,"[10]; Preemergence, 16 g ai/ha",0%
same,plant injury at 31 g/ha,"soybean (Glycine max); 31 g ai/ha, preemergence",40%
same,plant injury at 62 g/ha,"soybean (Glycine max); 62 g ai/ha, preemergence",65%
same,plant injury at 125 g/ha,"soybean (Glycine max); 125 g ai/ha, preemergence",95%
same,plant injury at 16 g/ha,"soybean (Glycine max); Preemergence, 16 g ai/ha",10%
same,pest or weed control at 31 g/ha,"[11]; 31 g ai/ha, preemergence",100%
same,pest or weed control at 62 g/ha,"[11]; 62 g ai/ha, preemergence",95%
same,pest or weed control at 125 g/ha,"[11]; 125 g ai/ha, preemergence",100%
same,pest or weed control at 16 g/ha,"[11]; Preemergence, 16 g ai/ha",25%
same,pest or weed control at 31 g/ha,"[12]; 31 g ai/ha, preemergence",100%
same,pest or weed control at 62 g/ha,"[12]; 62 g ai/ha, preemergence",100%
same,pest or weed control at 125 g/ha,"[12]; 125 g ai/ha, preemergence",100%
same,pest or weed control at 16 g/ha,"[12]; Preemergence, 16 g ai/ha",75%
same,plant injury at 31 g/ha,"[13]; 31 g ai/ha, preemergence",5%
same,plant injury at 62 g/ha,"[13]; 62 g ai/ha, preemergence",5%
same,plant injury at 125 g/ha,"[13]; 125 g ai/ha, preemergence",50%
same,plant injury at 16 g/ha,"[13]; Preemergence, 16 g ai/ha",0%
